Earlier results as cited in US9962390B2, “Mosapride sustained-release formulation providing pharmacological and clinical effects with once-daily administration” (Korea United Pharm. Inc., priority 2013, dated 2018).
Structures can show the parent of a compound that is named as a salt.

Tests used:
[1] = not given; remark: listed apart in the source

| SMILES | water solubility compared with Mosapride | concentration in eyeballs relative to blood ([1]; eyeballs) | concentration relative to that in blood plasma ([1]; liver, small intestine, kidney, and adrenal glands) | absorbed in the digestive tract ([1]; orally administered) |
| --- | --- | --- | --- | --- |
| CCOc1cc(N)c(Cl)cc1C(=O)NCC1CN(Cc2ccc(F)cc2)CCO1 (stereo not shown) [Mosapride citrate] | higher water solubility | – | – | – |
| CCOc1cc(N)c(Cl)cc1C(=O)NCC1CN(Cc2ccc(F)cc2)CCO1 (stereo not shown) [Mosapride, 4-amino-5-chloro-2-ethoxy-N-{[4-(4-fluorobenzyl)-2-morpholinyl]methyl}benzamide] | – | about half the concentration in blood | at least 10 times | more than 93% |
